Earlier results as cited in patent US20170239214A1, “COMPOSITION FOR PREVENTING OR TREATING OBESITY CONTAINING ALPHA-LIPOIC ACID AND N-ACETYLCYSTEINE AS ACTIVE INGREDIENTS” (The Asan Foundation, priority 2015, published 2017).

Columns and labels:
[1] = rats
[2] = mice

Row | SMILES | improving insulin resistance [1] | inhibiting a weight gain [1] | appetite suppressant effect [2]
1 | CC(=O)N[C@@H](CS)C(=O)O [N-acetylcysteine] | improving insulin resistance | significant effects of inhibiting a weight gain | 
2 | O=C(O)CCCCC1CCSS1 (stereo not drawn) [α-lipoic acid] |  |  | pronounced appetite suppressant effect
